Patent US20210163489A1, “PYRAZOLOPYRIMIDINE DERIVATIVES AND THE COMPOSITIONS AND METHODS OF TREATMENT REGARDING THE SAME” (NysnoBio Ireland DAC, priority 2016, published 2021)

Assays:
Parkin ligase = molecular target: T1, Parkin ligase (Homo sapiens, UniProt O60260); test: Activity-based probe assay using an ubiquitin vinyl sulfone probe (TR-FRET); assay type: biochemical; conditions: activation of heat activated Parkin, HA-Ub-VS probe; read-out: Probe Assay EC50 (μM) [Example 2]
T1 construct: Enzyme: Parkin-His tagged 203 μM (10.5 mg/ml)
T1 sequence (O60260 1-465): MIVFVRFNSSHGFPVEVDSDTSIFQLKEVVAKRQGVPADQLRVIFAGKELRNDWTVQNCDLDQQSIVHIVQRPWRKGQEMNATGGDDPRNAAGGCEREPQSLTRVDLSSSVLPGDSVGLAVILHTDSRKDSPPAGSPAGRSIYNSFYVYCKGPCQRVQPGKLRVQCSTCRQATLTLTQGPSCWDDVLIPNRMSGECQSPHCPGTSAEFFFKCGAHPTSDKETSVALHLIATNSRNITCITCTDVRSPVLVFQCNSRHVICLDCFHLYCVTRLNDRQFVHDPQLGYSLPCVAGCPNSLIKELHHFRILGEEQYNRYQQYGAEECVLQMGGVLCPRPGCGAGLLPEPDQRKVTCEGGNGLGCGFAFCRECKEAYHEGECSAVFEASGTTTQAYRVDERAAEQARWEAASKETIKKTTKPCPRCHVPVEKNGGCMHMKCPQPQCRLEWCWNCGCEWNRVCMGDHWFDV
Procedure: An Ubiquitin vinyl sulfone probe can be used that irreversibly binds to the active site cysteine of Parkin ligase. Covalent attachment of the probe to the Parkin can be monitored by TR-FRET. Candidate activator compounds can be identified by increasing the activity of Parkin ligase due to an increase in TR-FRET signal. Screening for activating compounds can be distinguished from the controls as follows:
100% activation signal=Heat activated Parkin+100 nM control activator in DMSO. 0% activation signal=Heat activated Parkin+DMSO only. Parkin activators can be identified by an increase of the 0% activation signal TR-FRET signal.
• Assay Plate: White 384 well plate (Corning 3572) • Enzyme: Parkin-His tagged 203 μM (10.5 mg/ml) • Probe: Ubiquitin vinyl-sulfone (HA-Ub-VS Boston Biochem U-212) • DMSO: DMSO (Sigma cat # D4540-100ML) • Reaction Buffer: 50 mM HEPES (pH 8.5), 150 mM NaCl, 0.01% Tween 20, 0.1% BSA • Detection Buffer: 50 mM HEPES (pH 8.5), 150 mM NaCl, 0.01% Tween 20, 0.1% BSA, 800 mM KF • Detection Reagent A: 2.6 nM Anti-6HIS-Eu cryptate and 40 nM Anti-HA-XL665 in detection buffer • Eu cryptate: Anti-6HIS-Eu cryptate (CisBio 61HISKLA) • XL665: Anti-HA-XL665 (CisBio 610HAXLA) Enzyme Reaction (15 min Pre Incubation Parkin with Activator Only) • Parkin: 40 nM • HA-Ub-VS Probe: 70 nM • Activator/DMSO: 2× Activator/2% DMSO • Reaction time: 60 minutes • Temperature: 22° C. • Total volume: 10 μl reaction
• Take 10 μl of Enzyme Reaction above and add 10 μl detection Reagent A under the following conditions: • Reaction time: 60 minutes • Temperature: 22° C. • Total volume: 20 μl
Assay procedure (Using HP D-300 compound dispenser and Bravo for the operation):
1) Heat activate Parkin in reaction buffer (500 μl/1.5 ml tube: Eppendorf Thermomixer 5 minutes, 400 rpm at 58° C. and put on ice until needed). 2) Load assay plate wells with 4.8 μl 84.5 nM Parkin in reaction buffer by use of Bravo. 3) Deliver 0.2 μl 200× activator candidates in DMSO by use of HP D-300 compound dispenser. Highest 200× concentration=20 μm and then twofold dilutions. 4) Spin 1000 rpm, 2 minutes, at room temp. 5) Incubate plate for 15 minutes at room temp. 6) Add 5 μl 140 nM HA-Ub-VS Probe in reaction buffer by use of Bravo. 7) Spin 1000 rpm, 2 minutes, at room temp. 8) Incubate plate for 60 minutes at room temp. 9) Add 10 μl 2.6 nM Anti-6HIS-Eu cryptate and 40 nM Anti-HA-XL665 in detection buffer. 10) Spin 1000 rpm, 2 minutes, at room temp. 11) Incubate plate for 60 minutes at room temp. 12) Read plates on Perkin Elmer Envision instrument with the following parameters:
(§1) LANCE dual laser protocol loaded into the Envision® software
(§2) Top Mirror: LANCE/DELFIA Duel/Bias (Bar code 446) Emission Filter: APC 665 EM (Bar code 205) 2nd Emission Filter: Europium 615 EM (Bar code 203) Read […] (channel 1) and 615 nm (channel 2) wavelengths on Envision®
(§3) Data Analysis: The Data can be read in CSV files. There are two tables in those CSV files, which are the values of 655 nm (channel 1) and 615 nm (channel 2) wavelengths respectively. The data is converted to an HTRF Ratio=(Channel 1/Channel 2)*10,000
(§4) The average of all the 0 uM controls (DMSO only)=BKGD (Background—0% activation). Subtract BKGD from each HTRF Ratio value=HTRF-BKGD. The average of all the 100 uM 100 nM control activator in DMSO controls=Max (100% activation). The following equation is then used to calculate % Activation for each well/candidate as follows: % Activation=(HTRF−BKGD/Max)*100.
Graphpad Prisim was used with Transform X values: X=Log(X) and nonlinear regression (dose-response-stimulation): Log(agonist) vs Response—variable slope (four parameters) with constrains set to Bottom=0 and Top=100.

[1] = Metabolic stability in rat liver microsomes (RLM); assay type: in vitro ADME; conditions: 1 μM compound, 1.0 mg/mL microsome, NADPH
Procedure: Compounds were also tested for metabolic stability in both rat liver microsomes (RLM) and human liver microsomes (HLM) and their half-life calculated (See Table 6). The assay was performed as follows. The total volume for each incubation was 250 μL. A 100 μM DMSO solution of compound (diluted from 10 mM stock solution) was spiked into 50 mM KH2PO4 (pH 7.4) buffer containing liver microsome at a concentration of 1.0 mg/mL. The reaction was initiated by the addition of 50 μL of 1 mM NADPH. The final concentration of each compound was 1 μM (1% DMSO). The positive controls, phenacetin for CYP1A2, diclofenac for CYP2C9, omeprazole for CYP2C19, dextromethorphan for CYP2D6 and midazolam for CYP3A4 were added to a separate tube with the final substrate concentrations of 1 μM (1% DMSO) for evaluating the enzyme activities in the liver microsomes. At 0, 15, 30 and 60 min, an aliquot of 15 μL reaction mixtures were removed and 200 μL of methanol (with internal standard of 25 ng/mL propranolol) was added to quench the reaction. The resulting mixture was centrifuged and supernatant was used for LC-MS/MS analysis.
The signals for each compound, or the metabolites for the probe substrates and the internal standard were integrated and the peak area ratios to internal standard were generated. Percent parent remaining at a specified timepoint was calculated based on the peak area ratios at time 0 (as 100%) for in vitro metabolic stability studies in liver microsome and hepatocyte. The observed rate constant (kobs) for the metabolism of substrates was calculated by plotting the natural log of percentage substrate remaining versus time of incubation with the slope being kobs. The half-life (T1/2) was calculated according to the following equation: […]

Parkin = molecular target: T2, Parkin (Homo sapiens, UniProt O60260); test: Parkin pUB auto-ubiquitinylation assay (TR-FRET); assay type: biochemical; conditions: activation of pUb activated Parkin; read-out: Auto-ubiq EC50 (μM) [Example 3]
T2 construct: Enzyme 3: Parkin-His tagged 203 μM (10.5 mg/ml)
Description: A Parkin pUB Auto-ubiquitinylation Assay is used to evaluate a compound's potency to activate Parkin's ability to Auto-ubiquitinylate itself.
The principle of this assay is that the E3 Ligase Parkin catalyzes the transfer of Ubiquitin to target proteins, but also has the ability to auto-ubiquitinylate itself. The phospho-Ubiquition (pUb) added to the assay alters the Parkin to a state where small molecule activators can enable the Parkin to auto-ubiquitinylate though the E1-E2 cascade reaction. The use of a Eu cryptate Ubiquition and anti 6His-d2 that binds to the His tagged Parkin will give a signal when the Eu cryptate Ubiquition is auto-ubiquitinylate onto the Parkin which can be monitored by TR-FRET.
Similar to the Activity-based probe assay in Example 2, screening for activating compounds can be distinguished from the controls as follows:
100% activation signal=pUb activated Parkin+40 nM control activator in DMSO. 0% activation signal=pUb activated Parkin+DMSO only. Parkin activators can be identified by an increase of the 0% activation signal TR-FRET signal.
• Assay Plate: White 384 well plate (Corning 3572) • Enzyme 1: E1 (Ubiquitin-activating enzyme/UBE1 Boston Biochem E-305) • Enzyme 2: E2 (UBcH7/Ube2L3 Boston Biochem E2-640) • Enzyme 3: Parkin-His tagged 203 μM (10.5 mg/ml) • pUb: Phospho-Ubiquitin (S65) (Boston Biochem U-102) • Eu Cryptate Reagent: Ubiquitin Eu (CisBio 61UBIKLA) • DMSO: DMSO (Sigma-34869-2.5L) • Reaction Buffer: 50 mM HEPES, 50 mM NaCl, 1 mM MgCl2, 0.005% Tween 20, 0.1% • PF-127 (Fisher Scientific 50-310-494), pH 8.5 • Detection Buffer: 50 mM HEPES, 50 mM NaCl, 800 mM KF, 5 mM EDTA, 0.005% • Tween 20, 0.1% PF-127, pH 8.5 • Detection Reagent Z: 13.4 nM Anti-6His-d2 in detection buffer • d2 Reagent: Anti-6His-d2 (CisBio 61HISDLA)
Enzyme Reaction (15 min Pre-Incubation with Parkin, pUb and Activator Only) • Parkin: 196 nM • pUb: 196 nM • DMSO: 1% DMSO • E1: 5 nM • E2: 50 nM • Ubiquitin Eu: 8.8 nM • Reaction time: 120 minutes • Temperature: 22° C. • Total volume: 10 μl reaction
Take 10 μl of Enzyme Reaction above and add 10 μl detection Reagent Z under the following conditions:
Reaction time: 60 minutes
1) Load assay plate wells with 4.9 μl 400.0 nM Parkin, 400 nM pUb in reaction buffer by use of Eppendorf 12-channel pipette. 2) Deliver 0.1 μl 100× activator candidates in DMSO by use of Echo 555 compound dispenser. Highest 100× concentration=100 μm and then twofold dilutions. Add each compound and control in duplicate wells. 3) Spin 1000 rpm, 2 minutes, at room temp. 4) Incubate plate for 15 minutes at room temp. 5) Add 5 μl 10 nM E1, 100 nM E2, 17.6 nM Ubiquitin Eu and 2 mM ATP in Reaction Buffer by use of Eppendorf 12-channel pipette. 6) Spin 1000 rpm, 2 minutes, at room temp. 7) Incubate plate for 120 minutes at room temp. 8) Add 10 μl 13.4 nM anti his d2 in detection buffer by use of Eppendorf 12-channel pipette. 9) Spin 1000 rpm, 2 minutes, at room temp. 10) Incubate plate for 120 minutes at room temp. 11) Read plates on Perkin Elmer Envision instrument with the following parameters:
as §1, §2, §3
as §4, with “uM” for “uM 100 nM”
XLFIT5 model 205 was applied for the data analysis. […]

COc1ccc(-c2cnn3c(O)c4c(nc23)CN(C)CC4)cc1 [Compound R3]
EC50 (Parkin ligase): > 100 µM

Cc1ccc(-c2cnc3c(O)cc(C)nn23)cc1 [Compound U3]
EC50 (Parkin ligase): > 100 µM

COc1ccc(-c2cnc3c(S)cc(C)nn23)cc1 [Compound T3]
RLM t1/2 [1]: 96.0 min

COc1ccc(-c2cnc3c(S)cc(C)nn23)cc1 [Compound Q3]
RLM t1/2 [1]: 6.0 min | EC50 (Parkin): > 40 µM

COc1ccc(-c2cnc3c(O)cc(C)nn23)cc1 [Compound V3]
EC50 (Parkin ligase): > 100 µM
